Assay results: patent publication US20190269730A1, “REGULATABLE CELL LINES AND METHODS OF USE THEREOF” (Auxolytic Ltd, priority 2016, published 2019)

Tests used:
[1] = test system: 5-FOA selected UMPS targeted T cells; experiment: Uracil auxotrophy growth assay of 5-FOA selected T cells (cell counts at day 8); format: cell-based, human
Method: (§1) Cells were cryopreserved in Bambanker medium. After thawing cells were cultured at 37° C., 5% CO2 in X-Vivo 15 (Lonza) supplemented with or without 5% human serum (Sigma-Aldrich) and 100 IU/ml human recombinant IL-2 (Peprotech) and 10 ng/ml human recombinant IL-7 (BD Biosciences). UMP or Uridine were added at 250 ug/ml. 5-FOA was added at 100 ug/ml to 1 mg/ml. During culture, medium was refreshed every 2 days.
(§2) Genomic DNA was harvested using QuickExtract (Epicentre). Cells were counted on an automated cell counter using Trypan blue staining or on a Cytoflex (Beckman Coulter) flow cytometer using CountBright beads (ThermoFisher) as a reference. Data was analyzed using Excel (Microsoft) and FlowJo (Tree Star).
To assay whether or not the cells selected for by 5-FOA treatment are uracil auxotrophs, mock or UMPS targeted T cells were exposed to 5-FOA as in Example 4. Following 4 days of 5-FOA selection, the population of cells was split into a uracil containing media (either UMP, uridine or both) and a uracil deficient media. A growth assay was subsequently performed by cell counting after following 4 days incubation in test media (day 8) (FIG. 4A).

[2] = test system: human T cells; experiment: 5-FOA resistance assay of UMPS targeted vs mock targeted T cells (cell counts after 4 days); format: cell-based; conditions: for survival / viability of cells in 5-FOA: mock treated and UMPS targeted T cells grown in 5-FOA for 4 days, UMP or Uridine 250 ug/ml, 5% human serum
Method: as §1, §2
5-FOA selects for uracil auxotrophic cells in other organisms (e.g. Boeke et al. 1984, Mol. Gen. Genet. 197(2):345-6). To investigate the potential utility of 5-FOA for the selection of uracil auxotrophs in human cells, the UMPS gene was targeted in human T cells by Cas9-gRNA complex electroporation followed by recovery (as in Example 2) followed by an assay of resistance to 5-FOA treatment (FIG. 3A). Cells were grown in 5-FOA and a variety of combinations of serum and uracil sources for 4 days before cell counting was performed. […] This is likely through a competition based mechanism (uridine can reverse 5-fluorouracil toxicity in humans (van Groeningen et al. 1992, Semin. Oncol. 19(2 Suppl 3):148-54)) (FIGS. 3B and C).

[3] = test system: UMPS edited human T cells; experiment: Growth of heterogeneous UMPS edited T cell population with/without exogenous uracil source (cell counts); format: cell-based; conditions: UMP or Uridine added at 250 ug/ml; no selection step; compared with mock edited and CCR5 targeted controls
Method: Cells were cryopreserved in Bambanker medium. After thawing cells were cultured at 37° C., 5% CO2 in X-Vivo 15 (Lonza) supplemented with or without 5% human serum (Sigma-Aldrich) and 100 IU/ml human recombinant IL-2 (Peprotech) and 10 ng/ml human recombinant IL-7 (BD Biosciences). UMP or Uridine were added at 250 ug/ml. 5-FOA was added at 100 ug/ml to 1 mg/ml. During culture, medium was refreshed every 2 days. T cells were activated using immobilized Anti-CD3 (clone OKT3, Tonbo Biosciences) and soluble anti-CD28 (clone CD28.2, Tonbo Biosciences) for 3 days before electroporation. For the experiments in FIGS. 1, 3 and 4, 1.4 million activated T cells were electroporated. For the experiments in FIG. 2, 30,000 activated T cells were electroporated per condition. These cells were resuspended in electroporation solution, mixed with the pre-complexed RNP and electroporated using a 4D-Nucleofector (Lonza) using program EO-115. The RNP consisted of Cas9 protein (Alt-R® S. pyogenes, IDT) at 300 ug/ml and sgRNA using a sgRNA:Cas9 molar ratio of 2.5. Genomic DNA was harvested using QuickExtract (Epicentre). Cells were counted on an automated cell counter using Trypan blue staining or on a Cytoflex (Beckman Coulter) flow cytometer using CountBright beads (ThermoFisher) as a reference. Data was analyzed using Excel (Microsoft) and FlowJo (Tree Star). […]

SMILES	cell growth of 5-FOA selected UMPS targeted population ([1]; 4 days in uracil containing (UMP, uridine or both) vs uracil deficient media after 4 days of 5-FOA selection)	toxicity of 5-FOA ([2]; UMPS targeted vs mock targeted T cells, 4 days of 5-FOA selection, 100 ug/ml to 1 mg/ml)	killing of non-UMPS targeted cells during 5-FOA selection ([1]; mock targeted T cell cultures, growth negligible after selection)	growth of UMPS edited cells [3]	survival / viability of cells in 5-FOA [2]
O=c1cc[nH]c(=O)[nH]1 [uracil]	cell growth was stimulated	–	–	–	–
O=C(O)c1[nH]c(=O)[nH]c(=O)c1F [5-FOA, 5-fluoroorotic acid]	–	less toxic in UMPS targeted cell lines	successful killing of non-UMPS targeted cells	–	–
O=c1ccn([C@@H]2O[C@H](COP(=O)(O)O)[C@@H](O)[C@H]2O)c(=O)[nH]1 [UMP]	–	–	–	rescue the growth of UMPS edited cells to the same level as mock edited and CCR5 targeted controls	improved the survival of both mock treated and UMPS targeted cells in 5-FOA
O=c1ccn([C@@H]2O[C@H](CO)[C@@H](O)[C@H]2O)c(=O)[nH]1 [uridine]	–	–	–	rescue the growth of UMPS edited cells to the same level as mock edited and CCR5 targeted controls	improved the survival of both mock treated and UMPS targeted cells in 5-FOA
